Common to all, as to assay type: in vivo
In test [1] the test system is Nephotettix virescens (Green Leafhopper). Put plainly: Nephotettix virescens (Green Leafhopper) rice seedling spray test, mortality. As to conditions: N5 nymphs, mortality 5 days after treatment. Here is the method: […] Nephotettix virescens (Green Leafhopper) Rice seedlings are treated with the diluted test solutions in a spray chamber. After drying, plants are infested with 10 N5 nymphs (3 replicates). 5 days after the treatment samples are checked for mortality.

For test [2], the system named is Nilaparvata lugens (Brown Plant Hopper). Put plainly: Nilaparvata lugens (Brown Plant Hopper) rice seedling spray test, mortality. As to conditions: N3 nymphs, mortality 6-12 days after treatment. On the procedure: Nilaparvata lugens (Brown Plant Hopper) Rice seedlings are treated with the diluted test solutions in a spray chamber. After drying, plants are infested with 20 N3 nymphs (2 replicates). 6-12 days after the treatment samples are checked for mortality

The subject of test [3] is Chilo suppressalis (Rice Stem Borer). Put plainly: Chilo suppressalis (Rice Stem Borer) treated rice leaf petri dish test, mortality. To be noted: L2 larvae, mortality 5 days after treatment. On the procedure:
Chilo suppressalis (Rice Stem Borer) Rice seedlings are treated and after drying the leaves are cut and transferred into a petri dish coated with wet filter paper. 10 larvae (L2) are added and the dish is covered with a filter tissue and a plastic lid. 5 days after treatment the percentage mortality is assessed (3 replicates per concentration).

Turning to `CCN1OC[C@@H](NC(=O)c2ccc(C3=NO[C@@](c4cc(Cl)cc(Cl)c4)(C(F)(F)F)C3)cc2C)C1=O` [Compound A3], the Control/% amounted to 90% in test [1] (application rate 3 ppm); 100% in test [1] (application rate 12 ppm); 100% in test [1] (application rate 50 ppm); 100% in test [1] (application rate 200 ppm); 100% in test [2] (rate 12.5 ppm); 100% in test [2] (rate 25 ppm). Moreover, the Control/% in test [2] (rate 50 ppm) turned out to be 100%; in test [3] (application rate 0.05 ppm), 97%; in test [3] (application rate 0.2 ppm) it was 100%; in test [3] (application rate 0.8 ppm), 100%.
With `Cc1cc(C2=NO[C@@](c3cc(Cl)cc(Cl)c3)(C(F)(F)F)C2)ccc1C(=O)N[C@@H]1CON(CC(F)(F)F)C1=O` [Compound A9], the Control/% in test [1] (application rate 3 ppm) was 100%; in test [1] (application rate 12 ppm) it was 100%; in test [1] (application rate 50 ppm), 100%; in test [1] (application rate 200 ppm), 100%; in test [2] (rate 12.5 ppm) it was 98%; in test [2] (rate 25 ppm), 100%. The Control/% in test [2] (rate 50 ppm) stood at 100%; in test [3] (application rate 0.05 ppm), 43%; in test [3] (application rate 0.2 ppm), 100%; in test [3] (application rate 0.8 ppm), 100%.
For the compound `CCN1OC[C@@H](NC(=O)c2ccc(C3=NO[C@@](c4cc(Cl)cc(Cl)c4)(C(F)(F)F)C3)cc2C(F)(F)F)C1=O` [Compound A28], the Control/% in test [2] (rate 12.5 ppm) was 0%; in test [2] (rate 25 ppm), 50%; in test [2] (rate 50 ppm), 95%.
As to `CCN1OC[C@@H](NC(=O)c2ccc(C3=NO[C@@](c4cc(Cl)c(Cl)c(Cl)c4)(C(F)(F)F)C3)cc2C(F)(F)F)C1=O` [Compound A29], the Control/% in test [2] (rate 12.5 ppm) amounted to 55%; in test [2] (rate 25 ppm), 88%; in test [2] (rate 50 ppm), 100%.
The matching figures for `CCN1OC[C@@H](NC(=O)c2ccc(C3=NO[C@@](c4cccc(C(F)(F)F)c4)(C(F)(F)F)C3)cc2C)C1=O` [Compound A30]: 93%, 100% and 98%.
With `CCN1OC[C@@H](NC(=O)c2ccc(C3=NO[C@@](c4cc(Cl)c(Cl)c(Cl)c4)(C(F)(F)F)C3)cc2Br)C1=O` [Compound A33], the Control/% was 80% in test [2] (rate 12.5 ppm), 98% in test [2] (rate 25 ppm) and 98% in test [2] (rate 50 ppm).
On to `CCN1OC[C@@H](NC(=O)c2ccc(C3=NO[C@@](c4cc(Cl)cc(Cl)c4)(C(F)(F)F)C3)cc2Br)C1=O` [Compound A34], for which the Control/% in test [2] (rate 12.5 ppm) stood at 98%; in test [2] (rate 25 ppm) it was 100%; in test [2] (rate 50 ppm), 100%.
Consider `CCN1OC[C@@H](NC(=O)c2ccc(C3=NO[C@@](c4cc(Cl)c(Cl)c(Cl)c4)(C(F)(F)F)C3)cc2C)C1=O` [Compound A35], for which the Control/% is 93% in test [2] (rate 12.5 ppm), 100% in test [2] (rate 25 ppm) and 98% in test [2] (rate 50 ppm).
On to `CCN1OCC(NC(=O)c2ccc(C3=NCC(c4cc(Cl)cc(Cl)c4)(C(F)(F)F)C3)cc2C)C1=O` (centres unmarked) [Compound B2], for which the Control/% came to 15% in test [2] (rate 12.5 ppm), 70% in test [2] (rate 25 ppm) and 88% in test [2] (rate 50 ppm).
The matching figures for `Cc1cc(C2=NCC(c3cc(Cl)cc(Cl)c3)(C(F)(F)F)C2)ccc1C(=O)NC1CON(CC(F)(F)F)C1=O` (centres unmarked) [Compound B3]: 100%, 100% and 100%.

(Values after US9474279B2, “Methods of controlling insects” (Syngenta Participations AG, priority 2012, dated 2016).)
